Patent US12421252B2, “Spiro (isobenzofuranazetidine) compounds for the treatment of autoimmune disease” (Hoffmann-La Roche Inc., priority 2020, dated 2025)

The compounds below were run against T1, human TLR8 (Homo sapiens, UniProt Q9NR97) (assay: HEK293-Blue-hTLR-8 cells assay). Settings: HEK293-Blue-hTLR8 cells, R848 stimulation, 20 hrs, SEAP reporter; read-out: HEK/hTLR8 IC50.
T1 sequence (Q9NR97 27-1041): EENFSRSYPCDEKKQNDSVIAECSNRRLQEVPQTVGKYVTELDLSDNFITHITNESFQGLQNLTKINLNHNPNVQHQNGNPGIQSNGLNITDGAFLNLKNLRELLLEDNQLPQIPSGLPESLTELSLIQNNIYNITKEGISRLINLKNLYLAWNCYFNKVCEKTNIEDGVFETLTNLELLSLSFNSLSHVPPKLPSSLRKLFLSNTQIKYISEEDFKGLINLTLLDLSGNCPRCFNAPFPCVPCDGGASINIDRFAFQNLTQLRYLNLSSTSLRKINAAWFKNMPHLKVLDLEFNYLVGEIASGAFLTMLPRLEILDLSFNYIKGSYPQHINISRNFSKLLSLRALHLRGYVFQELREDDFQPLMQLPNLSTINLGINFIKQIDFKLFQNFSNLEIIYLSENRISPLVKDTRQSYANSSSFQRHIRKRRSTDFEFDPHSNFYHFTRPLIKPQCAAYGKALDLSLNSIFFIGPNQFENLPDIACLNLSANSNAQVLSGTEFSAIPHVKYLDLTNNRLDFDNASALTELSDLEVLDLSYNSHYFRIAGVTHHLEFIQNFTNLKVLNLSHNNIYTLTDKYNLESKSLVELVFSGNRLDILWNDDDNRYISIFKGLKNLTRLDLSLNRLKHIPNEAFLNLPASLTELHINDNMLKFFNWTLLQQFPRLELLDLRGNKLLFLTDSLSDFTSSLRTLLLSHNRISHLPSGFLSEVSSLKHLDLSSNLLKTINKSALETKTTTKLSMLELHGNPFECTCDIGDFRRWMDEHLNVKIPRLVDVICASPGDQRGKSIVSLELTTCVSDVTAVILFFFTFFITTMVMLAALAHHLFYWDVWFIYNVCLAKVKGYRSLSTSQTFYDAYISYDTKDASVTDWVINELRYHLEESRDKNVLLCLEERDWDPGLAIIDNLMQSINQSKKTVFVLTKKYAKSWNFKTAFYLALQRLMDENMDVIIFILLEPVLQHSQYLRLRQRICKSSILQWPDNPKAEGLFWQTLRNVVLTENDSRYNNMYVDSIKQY
Type: cell-based
Source text: HEK293-Blue-hTLR-8 cells assay:
A stable HEK293-Blue-hTLR-8 cell line was purchased from InvivoGen (Cat. #: hkb-htlr8, San Diego, California, USA). These cells were originally designed for studying the stimulation of human TLR8 by monitoring the activation of NF-κB. A SEAP (secreted embryonic alkaline phosphatase) reporter gene was placed under the control of the IFN-β minimal promoter fused to five NF-κB and AP-1-binding sites. The SEAP was induced by activating NF-κB and AP-1 via stimulating HEK-Blue hTLR8 cells with TLR8 ligands. Therefore the reporter expression was declined by TLR8 antagonist under the stimulation of a ligand, such as R848, for incubation of 20 hrs. The cell culture supernatant SEAP reporter activity was determined using QUANTI-Blue™kit (Cat. #: rep-qb1, Invivogen, San Diego, Ca, USA) at a wavelength of 640 nm, a detection medium that turns purple or blue in the presence of alkaline phosphatase.
HEK293-Blue-hTLR8 cells were incubated at a density of 250,000˜450,000 cells/mL in a volume of 170 μL in a 96-well plate in Dulbecco's Modified Eagle's medium (DMEM) containing 4.5 g/L glucose, 50 U/mL penicillin, […], […], 2 mM L-glutamine, 10% (v/v) heat-inactivated fetal bovine serum with addition of 20 μL test compound in a serial dilution in the presence of final DMSO at 1% and 10 μL of 60 uM R848 in above DMEM, perform incubation under 37° C. in a CO2 incubator for 20 hrs. Then 20 μL of the supernatant from each well was incubated with 180 μL Quanti-blue substrate solution at 37° C. for 2 hrs and the absorbance was read at 620-655 nm using a spectrophotometer. The signaling pathway that TLR8 activation leads to downstream NF-κB activation has been widely accepted, and therefore similar reporter assay was modified for evaluating TLR8 antagonist.

SMILES	IC50
C[C@@H]1CN(c2ccc(C#N)n3ncc(F)c23)C[C@H](CN2CC3(C2)OCc2cc(N4CC(C)(N)C4)ccc23)O1 [Example 1, 4-[(2S,6R)-2-[[6-(3-amino-3-methyl-azetidin-1-yl)spiro[1H-isobenzofuran-3,3′-azetidine]-1′-yl]methyl]-6-methyl-morpholin-4-yl]-3-fluoro-pyrazolo[1,5-a]pyridine-7-carbonitrile]	0.082 µM
C[C@@H]1CN(c2ccc(C#N)n3ncc(F)c23)C[C@H](CN2CC3(C2)OCc2cc(N4CC5(CN(C)C5)C4)ccc23)O1 [Example 2, 3-fluoro-4-[(2R,6S)-2-methyl-6-[[6-(6-methyl-2,6-diazaspiro[3.3]heptan-2-yl)spiro[1H-isobenzofuran-3,3′-azetidine]-1′-yl]methyl]morpholin-4-yl]pyrazolo[1,5-a]pyridine-7-carbonitrile]	0.025 µM
C[C@@H]1CN(c2ccc(C#N)n3ncc(F)c23)C[C@H](CN2CC3(C2)OCc2cc(N[C@H]4CNC[C@H]4F)ccc23)O1 [Example 3, 3-fluoro-4-[(2S,6R)-2-[[6-[[(3S,4R)-4-fluoropyrrolidin-3-yl]amino]spiro[1H-isobenzofuran-3,3′-azetidine]-1′-yl]methyl]-6-methyl-morpholin-4-yl]pyrazolo[1,5-a]pyridine-7-carbonitrile]	0.051 µM
C[C@@H]1CN(c2ccc(C#N)n3ncc(F)c23)C[C@H](CN2CC3(C2)OCc2cc(N4CC5(CNCCO5)C4)ccc23)O1 [Example 4, 3-fluoro-4-[(2R,6S)-2-methyl-6-[[6-(5-oxa-2,8-diazaspiro[3.5]nonan-2-yl)spiro[1H-isobenzofuran-3,3′-azetidine]-1′-yl]methyl]morpholin-4-yl]pyrazolo[1,5-a]pyridine-7-carbonitrile]	0.035 µM
C[C@@H]1CN(c2ccc(C#N)n3ncc(F)c23)C[C@H](CN2CC3(C2)OCc2cc(N4CC[C@](C)(N)C4)ccc23)O1 [Example 5, 4-[(2S,6R)-2-[[6-[(3S)-3-amino-3-methyl-pyrrolidin-1-yl]spiro[1H-isobenzofuran-3,3′-azetidine]-1′-yl]methyl]-6-methyl-morpholin-4-yl]-3-fluoro-pyrazolo[1,5-a]pyridine-7-carbonitrile]	0.022 µM
C[C@@H]1CN(c2ccc(C#N)n3ncc(F)c23)C[C@H](CN2CC3(C2)OCc2cc(N4CCNCC4)ccc23)O1 [Example 6, 3-fluoro-4-[(2R,6S)-2-methyl-6-[(6-piperazin-1-ylspiro[1H-isobenzofuran-3,3′-azetidine]-1′-yl)methyl]morpholin-4-yl]pyrazolo[1,5-a]pyridine-7-carbonitrile]	0.024 µM
C[C@@H]1CN(c2ccc(C#N)n3nccc23)C[C@H](CN2CC3(C2)OCc2cc(N4CC5(CNCCO5)C4)ccc23)O1 [Example 7, 4-[(2R,6S)-2-methyl-6-[[6-(5-oxa-2,8-diazaspiro[3.5]nonan-2-yl)spiro[1H-isobenzofuran-3,3′-azetidine]-1′-yl]methyl]morpholin-4-yl]pyrazolo[1,5-a]pyridine-7-carbonitrile]	0.058 µM
C[C@@H]1CN(c2ccc(C#N)n3ncc(F)c23)C[C@H](CN2CC3(C2)OCc2cc(N4CC(N)C4)ccc23)O1 [Example 9, 4-[(2S,6R)-2-[[6-(3-aminoazetidin-1-yl)spiro[1H-isobenzofuran-3,3′-azetidine]-1′-yl]methyl]-6-methyl-morpholin-4-yl]-3-fluoro-pyrazolo[1,5-a]pyridine-7-carbonitrile]	0.045 µM
C[C@@H]1CN(c2ccc(C#N)n3ncc(F)c23)C[C@H](CN2CC3(C2)OCc2cc(N4C[C@H](N)[C@@H](O)C4)ccc23)O1 [Example 10, 4-[(2S,6R)-2-[[6-[(3S,4S)-3-amino-4-hydroxy-pyrrolidin-1-yl]spiro[1H-isobenzofuran-3,3′-azetidine]-1′-yl]methyl]-6-methyl-morpholin-4-yl]-3-fluoro-pyrazolo[1,5-a]pyridine-7-carbonitrile]	0.142 µM
C[C@@H]1CN(c2ccc(C#N)n3ncc(F)c23)C[C@H](CN2CC3(C2)OCc2cc(N4CC5(CNC5)C4)ccc23)O1 [Example 12, 4-[(2S,6R)-2-[[6-(2,6-diazaspiro[3.3]heptan-2-yl)spiro[1H-isobenzofuran-3,3′-azetidine]-1′-yl]methyl]-6-methyl-morpholin-4-yl]-3-fluoro-pyrazolo[1,5-a]pyridine-7-carbonitrile]	0.037 µM
C[C@@H]1CN(c2cc(=O)n(C)c3ncccc23)C[C@H](CN2CC3(C2)OCc2cc(N4CC(N)C4)ccc23)O1 [Example 13, 4-[(2S,6R)-2-[[6-(3-aminoazetidin-1-yl)spiro[1H-isobenzofuran-3,3′-azetidine]-1′-yl]methyl]-6-methyl-morpholin-4-yl]-1-methyl-1,8-naphthyridin-2-one]	0.409 µM
[2H]c1ccc2c(N3C[C@H](CN4CC5(C4)OCc4cc(N6C[C@@H](N)[C@H](OC)C6)ccc45)O[C@H](C)C3)ccc(C#N)c2n1 [Example 16, 5-[(2S,6R)-2-[[6-[(3R,4R)-3-amino-4-methoxy-pyrrolidin-1-yl]spiro[1H-isobenzofuran-3,3′-azetidine]-1′-yl]methyl]-6-methyl-morpholin-4-yl]-2-deuterio-quinoline-8-carbonitrile]	0.013 µM
[2H]c1ccc2c(N3C[C@H](CN4CC5(C4)OCc4cc(N6C[C@H]7NCCO[C@@H]7C6)ccc45)O[C@H](C)C3)ccc(C#N)c2n1 [Example 17, 5-[(2S,6R)-2-[[6-[(4aR,7aR)-3,4,4a,5,7,7a-hexahydro-2H-pyrrolo[3,4-b][1,4]oxazin-6-yl]spiro[1H-isobenzofuran-3,3′-azetidine]-1′-yl]methyl]-6-methyl-morpholin-4-yl]-2-deuterio-quinoline-8-carbonitrile]	0.009 µM
[2H]c1ccc2c(N3C[C@H](CN4CC5(C4)OCc4cc(N6CCNCC6)ccc45)O[C@H](C)C3)ccc(C#N)c2n1 [Example 18, 2-deuterio-5-[(2R,6S)-2-methyl-6-[(6-piperazin-1-ylspiro[1H-isobenzofuran-3,3′-azetidine]-1′-yl)methyl]morpholin-4-yl]quinoline-8-carbonitrile]	0.01 µM
C[C@@H]1CN(c2ccc(C#N)n3nccc23)C[C@H](CN2CC3(C2)OCc2cc(N4CC(N)C4)ccc23)O1 [Example 19, 4-[(2S,6R)-2-[[6-(3-aminoazetidin-1-yl)spiro[1H-isobenzofuran-3,3′-azetidine]-1′-yl]methyl]-6-methyl-morpholin-4-yl]pyrazolo[1,5-a]pyridine-7-carbonitrile]	0.099 µM
[2H]c1ccc2c(N3C[C@H](CN4CC5(C4)OCc4cc(N6CC(N)C6)cnc45)O[C@H](C)C3)ccc(C#N)c2n1 [Example 20, 5-[(2S,6R)-2-[[3-(3-aminoazetidin-1-yl)spiro[5H-furo[3,4-b]pyridine-7,3′-azetidine]-1′-yl]methyl]-6-methyl-morpholin-4-yl]-2-deuterio-quinoline-8-carbonitrile]	0.03 µM
[2H]c1ccc2c(N3C[C@H](CN4CC5(C4)OCc4cc(N6CC(C)(N)C6)cnc45)O[C@H](C)C3)ccc(C#N)c2n1 [Example 21, 5-[(2S,6R)-2-[[3-(3-amino-3-methyl-azetidin-1-yl)spiro[5H-furo[3,4-b]pyridine-7,3′-azetidine]-1′-yl]methyl]-6-methyl-morpholin-4-yl]-2-deuterio-quinoline-8-carbonitrile]	0.017 µM
